Paper PMC7024310, “Pyrenosetins A–C, New Decalinoylspirotetramic Acid Derivatives Isolated by Bioactivity-Based Molecular Networking from the Seaweed-Derived Fungus Pyrenochaetopsis sp. FVE-001” (Marine Drugs, 2020)

What was measured:
[1] = tested on: human malignant melanoma cell line A-375; test: CellTiterBlue cell viability assay, malignant melanoma cell line A-375; assay type: cell-based; conditions: for IC50: Homo sapiens, A-375 cells, 24 h treatment, CellTiterBlue, read-out: IC50 against A-375 cells
Experimental: (§1) The crude extracts were initially tested in vitro against 5 human cancer cell lines: colorectal adenocarcinoma cell line HT-29 (DSMZ, Braunschweig, Germany), malignant melanoma cell line A-375 (CLS, Eppelheim, Germany), colon cancer cell line HCT-116 (DSMZ), lung carcinoma cell line A-549 (CLS, Eppelheim, Germany), human breast cancer line MB-231 (CLS), and the non-cancerous human keratinocyte line HaCaT (CLS) at a concentration of 100 µg/mL. The antitumoral activity of the crude extracts was evaluated by monitoring the metabolic activity using the CellTiterBlue Cell Viability Assay (Promega, Mannheim, Germany). HT-29 and HaCaT cells were cultivated in RPMI medium, A-549 and MB-231 cells in DMEM: Ham’s F12 medium (1:1) supplemented with 15 mM HEPES and A-375 and HCT-116 cells in DMEM medium supplemented with 4.5 g/L D-Glucose and 110 mg/L sodium pyruvate. All media were supplemented with L-Glutamine, 10% fetal bovine serum, 100 U/mL penicillin, and […] streptomycin. The cultures were maintained at 37 °C under a humidified atmosphere and 5% CO2. The cell lines were transferred every 3 or 4 days. For experimental procedure, the cells were seeded in 96 well plates at a concentration of 10,000 cells per well. A stock solution of 40 mg/mL in DMSO was prepared of each extract. After 24 h incubation, the medium was removed from the cells and 100 µL fresh medium containing the test samples was added. Each sample was prepared in duplicate once. Doxorubicin as a standard therapeutic drug was used as positive control, 0.5% DMSO and growth media were used as controls. Following compound addition, plates were cultured at 37 °C for 24 h. Afterwards, the assay was performed according to the manufacturer’s instructions and measured using the microplate reader Tecan Infinite M200 at excitation 560 nm and emission of 590 nm. For determination of IC50 values, a dilution series of the extracts was prepared and tested, as described before for the crude extract.

[2] = tested on: non-cancerous human keratinocyte cell line HaCaT; test: CellTiterBlue cell viability assay, non-cancerous keratinocyte line HaCaT (general toxicity); assay type: cell-based; conditions: HaCaT cells, 24 h treatment, read-out: IC50 against HaCaT cells
Experimental: as §1

[3] = tested on: Plasmodium falciparum 3D7; parameters: method as in PMID 28901329; conditions: cited from earlier work
cancer cell lines = tested on: cancer cell lines; parameters: method as in PMID 28901329; conditions: cited from earlier work

Compound | IC50 [1] [µM] | IC50 [2] [µM] | antimalarial activity [3] | activity against cancer cell lines (cancer cell lines) | selectivity index (IC50 value against HaCaT cells / IC50 value against A-375 cells) ([1]; HaCaT vs A-375)
C/C=C/C=C/[C@H]1C(C)=C[C@H]2C[C@@H](C)CC[C@@H]2[C@@]1(C)/C(O)=C1/C(=O)[C@@H](CO)N(C)C1=O [Compound 4, Phomasetin] | 37.3 | 45 | – | – | –
CC(=O)/C=C/[C@H]1[C@H](C(=O)N(C)[C@H](CO)C(=O)O)C(=O)[C@@]2(C)[C@@H]1C(C)=C[C@H]1C[C@@H](C)CC[C@@H]12 [wakodecaline B] | – | – | moderate antimalarial activity | inactive | –
CC(=O)/C=C/[C@@H]1[C@H]2C(C)=C[C@H]3C[C@@H](C)CC[C@@H]3[C@@]2(C)C(=O)[C@@]12C(=O)[C@@H](CO)N(C)C2=O [Compound 3, Pyrenosetin C] | 140 | 143 | – | – | –
COc1cccc2c1C(=O)c1c(O)c3c(c(O)c1C2=O)C[C@@](O)(C(=O)CO)C[C@@H]3O[C@H]1C[C@H](N)[C@H](O)[C@H](C)O1 [Doxorubicin, reference compound] | 0.6 | 22.1 | – | – | –
CC1=CC2CC(C)CCC2C2(C)C(=O)C3(C(=O)C(CO)N(C)C3=O)C(C=CC(C)O)C12 (stereo not drawn) [Compound 1, Pyrenosetin A] | 2.8 | 4.2 | – | – | –
CC1=C[C@H]2C[C@@H](C)CC[C@@H]2[C@@]2(C)C(=O)[C@@]3(C(=O)[C@@H](CO)N(C)C3=O)[C@H](/C=C/[C@@H](C)O)[C@@H]12 [Compound 2, Pyrenosetin B] | 6.3 | 35 | – | – | around 5.6
wakodecaline A | – | – | moderate antimalarial activity | inactive | –
